According to patent publication US20250066292A1 (The Regents of the University of California, priority 2021, published 2025):

Legend:
cystinotic fibroblasts [1] = assay: Glutathione and oxidized glutathione measurement during constant exposure; type: cell-based, human; conditions: 100 uM; for oxidized glutathione (GSSG) / ratio of GSH/GSSG: versus 0-minute controls
Procedure: (§1) In vitro experiments with prodrugs in cystinotic fibroblasts. Fibroblasts from a de-identified cystinotic patient were split 3× from 2 plates into 12 plates. An experimental compound, BL-0856, was studied using the following protocols. Several timepoints of cystamine was also performed for comparison. The constant incubation time series for the new compound was: 0, 15 min, 30 min, 1 h, 3 h, and 5 h. The cystamine timepoints were 0, 30 min, 1 h, and 5 h. There was also a washout experiment done for 2 timepoints of the experimental compound, where after 3 hours of constant incubation, the media was exchanged with no compound, and incubated for either 1 h or 3 h. Harvesting of cells on the plate went as follows 2× washes with PBS that included 5 mM N-ethylmaleimide for trapping free thiol groups, and then scraping the plates with an acidified organic solvent extraction solution containing d4-NEM-cysteamine, d4-cystine, d8-cystamine, ^13C^15N NEM-glutathione, and ^13C, ^15N GSSG as internal standards. All samples were run on an API 4500 triple quadrupole LC-MS/MS, with selective reaction monitoring (SRM/MRM) for the following compounds of interest: cystine, cysteine, cystamine, reduced glutathione, oxidized glutathione (GSSG). […] All data fit well to single exponential curves (either decay or association), except where mentioned.
Glutathione and oxidized glutathione measurement during constant cystamine or BL-0856 exposure: Fibroblast cultures are exposed to 100 uM cystamine or 100 uM BL-0856 for the following timepoints: 0 min, […], 30 min, 1 h, 3 h, and 5 h. Following incubation, cells are washed 2× in PBS containing N-ethylmaleimide. After removing the wash, the cells are harvested on ice using 80% acetonitrile/1% formic acid, containing stable isotope internal standard for glutathione and oxidized glutathione.

cystinotic fibroblasts [2] = assay: Cysteamine and cystamine (and prodrug) measurement during constant exposure; type: cell-based, human; conditions: 100 uM; for Cysteamine levels (intracellular) / cystamine levels (intracellular): constant exposure 0 min to 5 h
Procedure: as §1
Following incubation, cells are washed 2× in PBS containing N-ethylmaleimide.

[3] = system: circulating white blood cells; conditions: taken regularly, measured in circulating white blood cells; cited from earlier work
[4] = system: CDAHFD induced mouse models of NASH; assay: Murine CDAHFD NASH Study 2 comparing prodrug analogs BL0940 and BL0948; type: in vivo, mouse (C57BL/6 male); conditions: lower dose of BL0940, once daily gavage
Source text: Mice had at least received 8 weeks of CDAHDF diet before starting the study and continued to receive this diet during the next phase of the study. There were 8 mice per group (C57BL/6 male).
• HD BL0940 (High dose) once daily by gavage therapy for 4 • LD BL0940 (low dose) once daily by gavage therapy for 4 • BL0948 once daily by gavage therapy for 4 weeks
The MW of BL0940 is higher than BL0948 and so a higher dose was given. That is, HD BL0940 and BL0948 had capability of releasing same number of D2-cysteamine molecules.

cystinotic fibroblasts [5] = assay: Intracellular D2-cysteamine and prodrug levels following continual drug exposure; type: cell-based, human; conditions: for intracellular D2-cysteamine levels: 100 uM in media, continual exposure
Procedure: (§2) Cystine Depletion Study. Dermal cystinotic fibroblasts were cultured in medium containing BL0948, BL0940 or D4-Cystamine at the same 100 uM concentration:
Intracellular D2-cysteamine levels are measured following continual drug exposure (in media) to cystinotic fibroblasts (FIG. 7).

[6] = system: Dermal cystinotic fibroblasts; assay: Cystine Depletion Study with BL0948, BL0940 or D4-Cystamine; type: cell-based, human; conditions: 100 uM in medium, continual exposure
Procedure: as §2
Intracellular cystine depletion over time. […] This likely represents a rapid exposure to D2-cysteamine after intracellular uptake. D4-cystamine will most likely reduce after crossing the cell membrane (peak level seen at 45 mins). BL0948 most likely has reduced to D2-cysteamine and the rearranged isomer in the medium before crossing the cell membrane. It is possible that after extracellular reduction that the ratio of D2-Cysteamine to rearranged analog is 10-20:1.

[7] = Prodrug stability and conversion in the medium and within the cell; type: in vitro ADME
Source text: This prodrug analog, BL0940, is very stable both in the medium and within the cell.

[8] = system: CDAHFD induced mouse models of NASH; assay: Study 1 NASH/Mouse (CDAHFD diet); type: in vivo, mouse (C57BL/6 male); conditions: 200 mg/kg once daily gavage for 2 weeks; for intrahepatic fibrosis: compared with control group
Procedure: Study 1—NASH/Mouse. Mice had at least received 8 weeks of CDAHFD diet before starting the study and continued to receive this diet during the next phase of the study. There were 4 mice per group (C57BL/6 male): • Control group (c1), water administered once daily by gavage for 2 weeks; • 200 mg/kg of Drug 0 once daily gavage therapy for 2 weeks; • 200 mg/kg of Drug 2 once daily gavage therapy for 2 weeks; • 200 mg/kg of Drug 4 once daily gavage therapy for 2 weeks. FIG. 10A depicts the study outline.

cystinotic fibroblasts [9] = assay: Cystine measurement after washout; type: cell-based, human; conditions: 100 uM for 3 h, then washout in regular media 0 min, 1 h
Procedure: as §1, with “mentioned. […]” for “mentioned.”

cystinotic fibroblasts [10] = assay: Cystine measurement during constant cystamine or BL-0856 exposure; type: cell-based, human; conditions: 100 uM, constant exposure 0 min to 5 h, compared with cystamine
Procedure: Drug concentrations: BL-0856 powder was resuspended in water at a concentration of 25 mM. 40 μL of this solution was added to 10 mL of media for a final concentration of 100 uM.
Cystamine was made from high pH oxidation of cysteamine-bitartrate powder (w/Ammonium hydroxide), at a concentration of 25 mM. […] Since this was used for only several timepoints of a control, this was deemed sufficient for this purpose. The drug was also administered to cells at a final concentration of 100 uM.
In vitro experiments with prodrugs in cystinotic fibroblasts. Fibroblasts from a de-identified cystinotic patient were split 3× from 2 plates into 12 plates. An experimental compound, BL-0856, was studied using the following protocols. Several timepoints of cystamine was also performed for comparison. The constant incubation time series for the new compound was: 0, 15 min, 30 min, 1 h, 3 h, and 5 h. The cystamine timepoints were 0, 30 min, 1 h, and 5 h. There was also a washout experiment done for 2 timepoints of the experimental compound, where after 3 hours of constant incubation, the media was exchanged with no compound, and incubated for either 1 h or 3 h. […]

[11] = Stability of BL-0856 resuspended in water (LC-MS); type: physicochemical; conditions: 25 mM in water, 1-week post-resuspension
Procedure: Drug concentrations: BL-0856 powder was resuspended in water at a concentration of 25 mM. 40 μL of this solution was added to 10 mL of media for a final concentration of 100 uM. […] Based upon the LC-MS profile, BL-0856 was likely >80-90% pure (unhydrolyzed) when used in the experiments. A method for the reduced intermediate form was also made, but none of it was found present in the neat standard.

cystinotic fibroblasts [12] = assay: Cysteine measurement during constant exposure; type: cell-based, human; conditions: 100 uM, compared with cystamine
Procedure: as §1, with “mentioned. […]” for “mentioned.”

[13] = 400-1000 IU/day for 4-10 months, cited from earlier work

NCCSSCCN [cystamine, reference compound]
oxidized glutathione (GSSG) (cystinotic fibroblasts [1]): goes up at the first timepoint | ratio of GSH/GSSG (cystinotic fibroblasts [1]): lower throughout all timepoints | Cysteamine levels (intracellular) (cystinotic fibroblasts [2]): nearly identical | cystamine levels (intracellular) (cystinotic fibroblasts [2]): higher

NCCS [cysteamine]
depletion of intracellular cystine [3]: up to 90%

[2H]C([2H])(CN)SSC[C@H](NC(C)=O)C(=O)OCC [BL0940]
effect on markers of inflammation, remodeling and fibrosis [4]: did not have the same degree of effect | intracellular D2-cysteamine levels (cystinotic fibroblasts [5]): increase over time | intracellular levels of BL0940 (cystinotic fibroblasts [5]; continued exposure, e.g. at 240 minute time points): increase over time | intracellular cystine depletion (effect on cystine levels) [6]: less of an effect compared to D4-cystamine | stability in the medium and within the cell [7]: very stable

[2H]C([2H])(CN)SSC([2H])([2H])CN [D4-cystamine]
intrahepatic fibrosis [8]: significant reduction

[2H]C([2H])(CN)SC(C)=O [BL0948]
intracellular D2-cysteamine levels (cystinotic fibroblasts [5]): relatively high level | intracellular cystine depletion (effect on cystine levels) [6]: rapid and more profound | intracellular cystine depletion (effect on cystine levels) ([6]; listed as BL-948): pronounced effect | conversion of prodrug to D2-cysteamine ([7]; portion rearranges to the N-acetylated isomer): does not convert entirely to D2-cysteamine

Cl.Cl.Cl.NCCSSC[C@H](N)C(=O)SCCN [BL-0856, (S)-3-((2-ammonioethyl)disulfaneyl)-1-((2-ammonioethyl)thio)-1-oxopropan-2-aminium chloride]
glutathione (cystinotic fibroblasts [1]; between the 2 drug forms): no obvious differences | oxidized glutathione (GSSG) (cystinotic fibroblasts [1]): goes up at the first timepoint | ratio of GSH/GSSG (cystinotic fibroblasts [1]): lower throughout all timepoints | cystine reaccumulation rate (cystinotic fibroblasts [9]): comparable to cystamine | cystine depletion rates (cystinotic fibroblasts [10]): nearly identical | content of resuspended drug (stability in water) [11]: contained cysteamine and cystamine | BL-0856 and the thiol reduced intermediate in cells (cystinotic fibroblasts [2]; any of the timepoints, LC-MS/MS): not found at high enough levels to be identified | Cysteamine levels (intracellular) (cystinotic fibroblasts [2]): nearly identical | cystamine levels (intracellular) (cystinotic fibroblasts [2]): some cystamine still exists | cysteine (intracellular) (cystinotic fibroblasts [12]): higher

[2H]C(CN)SSC([2H])CN (stereo not shown) [D2-cystamine]
intrahepatic fibrosis [8]: significant reduction | markers of fibrosis (aSMA) ([8]; versus control groups): significant reduction | markers of inflammation (F4/80) ([8]; versus control groups): significant reduction | markers of inflammation (FIG. 12A-B) ([8]; versus control groups): significant reduction

vitamin E
mean AST levels after treatment ([13]; decreased from 104±61 IU/L): 33±11 IU/L | mean ALT levels after treatment ([13]; decreased from 175±106 IU/L): 40±26 IU/L
